Our source for the IC50 values is BindingDB's records for patent US20240132491 (Medshine Discovery, 2024).

This test deals with Programmed cell death 1 ligand/protein 1 (Homo sapiens, UniProt Q9NZQ7). In words: PD-L1 Binding Assay. As for the experimental part:
Experimental Materials:PD1:PD-L1 TR-FRET assay kit, purchased from BPS Biosciences. Nivo multimode microplate reader (PerkinElmer)Experimental Method:PD1-Eu, dye-labeled acceptor, PD-L1-biotin, and compound to be tested were all diluted using the buffer in the kit.The compound to be tested was diluted 5-fold to the 8th concentration, i.e., from 4 μM to 0.05 nM, and the DMSO concentration was 4%. The experiment was set up in duplicate wells. 5 μL of each concentration gradient of the compound to be tested was added to a microtiter plate, wherein 5 μL of a buffer containing 4% DMSO and 5 μL of PD-L1-biotin (60 nM) was added to the Max signal well, and only 5 μL of buffer was added to the Min signal well. The plate was incubated at 25° C. for 20 minutes. After the incubation, 5 μL of diluted PD1-Eu (10 nM) and 5 μL of diluted dye-labeled acceptor were added to each well. The system was reacted at 25° C. for 90 minutes. After the reaction, the multimode microplate reader was used to read the time-resolved fluorescence analysis signal.

Programmed cell death 1 ligand/protein 1, sequence (Q9NZQ7 whole entry): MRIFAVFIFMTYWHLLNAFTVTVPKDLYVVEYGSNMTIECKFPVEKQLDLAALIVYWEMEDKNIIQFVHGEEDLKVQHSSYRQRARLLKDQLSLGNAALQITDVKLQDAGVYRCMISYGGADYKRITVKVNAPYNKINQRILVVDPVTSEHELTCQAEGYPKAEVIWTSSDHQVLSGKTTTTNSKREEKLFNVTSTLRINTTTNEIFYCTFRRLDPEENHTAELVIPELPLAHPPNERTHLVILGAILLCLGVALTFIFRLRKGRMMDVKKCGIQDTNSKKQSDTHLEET
Programmed cell death 1 ligand/protein 1, sequence (Q15116 whole entry, further chain): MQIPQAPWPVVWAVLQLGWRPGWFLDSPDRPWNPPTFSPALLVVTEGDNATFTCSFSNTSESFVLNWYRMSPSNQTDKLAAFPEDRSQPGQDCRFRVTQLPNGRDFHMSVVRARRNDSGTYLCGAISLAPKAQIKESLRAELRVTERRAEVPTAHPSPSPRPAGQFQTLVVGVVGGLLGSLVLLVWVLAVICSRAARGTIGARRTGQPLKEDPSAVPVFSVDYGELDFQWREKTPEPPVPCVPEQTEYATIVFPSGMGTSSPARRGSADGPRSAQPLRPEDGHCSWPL

In general, IC50 refers to the concentration that gives 50% inhibition. The low end stands for inhibition by little substance, the high end for a need for much substance. In the case of `COc1nc(-c2cccc(-c3cccc4c3CCN4c3nccc4cc(CN5CC[C@@H](O)C5)cnc34)c2Cl)ccc1CNC[C@@H]1CCC(=O)N1` [US20240132491, Example 1], the IC50 is 1.95 nM.
